Reference: patent US20190353647A1, “NOVEL REAL-TIME MULTIPLEXED, MULTI-COLOR BIOLUMINESCENCE RESONANCE ENERGY TRANSFER ASSAY, APPARATUS, AND USES THEREOF” (Universite de Bordeaux, priority 2016, published 2019)

How the values were obtained:
Type in all cases: cell-based
[1] = target: T1, TRPV1 (Homo sapiens, UniProt Q8NER1); assay: Intermolecular BRET assay, TRPV1-Luc/YFP-CaM in HEK293T cells; settings: for Effect on CAPS-induced BRET increase: intermolecular test
T1 construct: expressed in transfected cells; host or cells: HEK293T
Description: In order to generate the BRET constructs, super Yellow Fluorescent Protein 2 and Renilla Luciferase II were used to improve the brightness of the assay. They were referred as YFP and Luc for short in the rest of the manuscript. The cDNA of Luc and YFP were first cloned together using a three-piece ligation in the BamHI/XhoI site of pcDNA3.1(+) (Invitrogen, Carlsbad, Calif., USA), yielding two expression vectors pcDNA3.1 YFP-Luc where YFP was cloned in-fusion at the N-terminal of Luc, and pcDNA3.1 Luc-YFP where Luc was cloned in-fusion at the N-terminal of YFP. Both YFP and Luc were amplified by PCR from the pcDNA3-YFP-EPAC-Luc vector. Luc was cloned either at the N-terminal of YFP as a HindIII-EcoRI fragment (primers used: “Luc_HindIII_ATGN-term sense” and “Luc_no Stop_EcoRI_N-term antisense”) or at the COOH-terminal of YFP as an EcoRI-XhoI fragment (primer used: “Luc_EcoRI_ATG_C-term sense” and “Luc_XhoI_Stop_C-term antisense”). In parallel, YFP was cloned either at the N-terminal of Luc as a HindIII-EcoRI fragment (primers used: “YFP_HindIII_ATG_N-term sense” and “YFP_no Stop_EcoRI_N-term antisense”) or at the COOH-terminal of Luc as a EcoRI-XhoI fragment (primer used: “YFP_EcoRI_ATG_C-term sense” and “YFP_XhoI_Stop_C-term antisense”). The sequence joining Luc and YFP sequence encoded […] (SEQ ID NO: 18) as a linker, and contained an AgeI restriction site. The YFP-hTRPV1-Luc expression vector was obtained by subcloning the human TRPV1 cDNA from the pDONR201-hTRPV1 vector (Harvard Medical School PlasmID Repository, clone HsCD00081472) as an EcoRI PCR fragment in the EcoRI site of the vector pcDNA3.1 YFP-Luc (primer used: “hTRPV1_EcoRI_Fus_Sense” and “hTRPV1_EcoRI_Fus_antisense”). The hTRPV1-Luc expression vector was obtained by subcloning the cDNA of hTRPV1 as a HindIII-EcoRI fragment in place of the YFP in the HindIII-EcoRI site of the pcDNA3.1 YFP-Luc vector (primer used: “hTRPV1_HindIII_ATG_Sense” and “hTRPV1_EcoRI_Fus_antisense”). The Luc-hTRPV3 expression vector was obtained by subcloning the cDNA of hTRPV3 (Harvard Medical School PlasmID Repository, clone HsCD00341603) as a AgeI-XhoI fragment in place of the YFP in the AgeI-XhoI sites of the pcDNA3.1 Luc-YFP vector (primer used: “hTRPV3_AgeI_ATG_Sense” and “hTRPV3_Stop_XhoI_antisense”). The hTRPV4-Luc expression vector was obtained by subcloning the cDNA of hTRPV4 as a BamHI-AgeI fragment in place of the YFP in the BamHI-AgeI site of the pcDNA3.1 YFP-Luc vector (primer used: “hTRPV4_BamHI_ATG_Sense” and hTRPV4_AgeI_Fus_antisense”). In each case, the sequence joining the cDNA of interest and either Luc or YFP sequence encoded […] (SEQ ID NO: 18) as a linker.
The cDNA of mAmetrine (Plasmid #54660) and LssmOrange (Plasmid #37130) were obtained from AddGene plasmid repository. The cDNA of aquamarine, mAmetrine and LssmOrange were all subcloned as a HindIII-EcoRI fragment in place of the YFP in the HindIII-EcoRI site of the pcDNA3.1 YFP-Luc vector (primer used: “YFP_HindIII_ATG_N-term sense” and “YFP_no Stop_EcoRI_N-term antisense”) to yield pcDNA3.1 FP-Luc expression vectors (“FP” being any fluorescent protein between aquamarine, mAmetrine and LssmOrange). […] A similar strategy was used to obtain the FP-CaM expression vector using the pcDNA3.1 FP-Luc expression vector instead of the pcDNA3.1 YFP-Luc.
HEK293T cells were maintained in Dulbecco's modified Eagle's medium-high Glucose (DMEM) (D6429, Sigma) supplemented with 10% fetal bovine serum, 100 units mL-1 penicillin and streptomycin. Twenty-four hours before transfection, cells were seeded at a density of 500,000 cells in 6-well dishes. Transient transfections were performed using polyethylenimine (PEI, linear, Mr 25,000; catalogue number 23966 Polysciences, Inc., Warrington, Pa., USA) with a PEI:DNA ratio of 4:1. Usually, 0.1-0.25 μg of the donor constructions and 1.75-1.9 μg of the acceptors constructions were transfected for the BRET measurement.

[2] = target: T1, TRPV1; assay: Calcium assay in transfected HEK293T cells; settings: cells expressing TRPV1, YFP-TRPV1-Luc or TRPV1-Luc; not in mock-transfected cells
Description: TRP channel activation was evaluated in transfected HEK293T human embryonic-kidney cells. […] For this purpose, we measured calcium entry in mock-transfected or transfected HEK293T cells with either native TRPV1 or the BRET constructs, YFP-TRPV1-Luc or TRPV1-Luc.

[3] = target: TRPV4 (Homo sapiens, UniProt Q9HBA0); assay: Intermolecular BRET assay, TRPV4-Luc/YFP-CaM in HEK293T cells; design: expressed in transfected cells; host or cells: HEK293T; settings: for TRPV4-Luc/YFP-CaM basal BRET signal on challenge: HEK293T, dose-response, FIG. 1
Description: In order to generate the BRET constructs, super Yellow Fluorescent Protein 2 and Renilla Luciferase II were used to improve the brightness of the assay. They were referred as YFP and Luc for short in the rest of the manuscript. The cDNA of Luc and YFP were first cloned together using a three-piece ligation in the BamHI/XhoI site of pcDNA3.1(+) (Invitrogen, Carlsbad, Calif., USA), yielding two expression vectors pcDNA3.1 YFP-Luc where YFP was cloned in-fusion at the N-terminal of Luc, and pcDNA3.1 Luc-YFP where Luc was cloned in-fusion at the N-terminal of YFP. Both YFP and Luc were amplified by PCR from the pcDNA3-YFP-EPAC-Luc vector. Luc was cloned either at the N-terminal of YFP as a HindIII-EcoRI fragment (primers used: “Luc_HindIII_ATGN-term sense” and “Luc_no Stop_EcoRI_N-term antisense”) or at the COOH-terminal of YFP as an EcoRI-XhoI fragment (primer used: “Luc_EcoRI_ATG_C-term sense” and “Luc_XhoI_Stop_C-term antisense”). In parallel, YFP was cloned either at the N-terminal of Luc as a HindIII-EcoRI fragment (primers used: “YFP_HindIII_ATG_N-term sense” and “YFP_no Stop_EcoRI_N-term antisense”) or at the COOH-terminal of Luc as a EcoRI-XhoI fragment (primer used: “YFP_EcoRI_ATG_C-term sense” and “YFP_XhoI_Stop_C-term antisense”). The sequence joining Luc and YFP sequence encoded […] (SEQ ID NO: 18) as a linker, and contained an AgeI restriction site. The YFP-hTRPV1-Luc expression vector was obtained by subcloning the human TRPV1 cDNA from the pDONR201-hTRPV1 vector (Harvard Medical School PlasmID Repository, clone HsCD00081472) as an EcoRI PCR fragment in the EcoRI site of the vector pcDNA3.1 YFP-Luc (primer used: “hTRPV1_EcoRI_Fus_Sense” and “hTRPV1_EcoRI_Fus_antisense”). The hTRPV1-Luc expression vector was obtained by subcloning the cDNA of hTRPV1 as a HindIII-EcoRI fragment in place of the YFP in the HindIII-EcoRI site of the pcDNA3.1 YFP-Luc vector (primer used: “hTRPV1_HindIII_ATG_Sense” and “hTRPV1_EcoRI_Fus_antisense”). […]
HEK293T cells were maintained in Dulbecco's modified Eagle's medium-high Glucose (DMEM) (D6429, Sigma) supplemented with 10% fetal bovine serum, 100 units mL-1 penicillin and streptomycin. […] After overnight incubation, transfected cells were then detached, resuspended in DMEM w/o red phenol (Ref 21063-029, ThermoFisher scientific, Waltham, Mass., USA) and replated at a density of 10^5 cells per well in 96-well white plates with clear bottoms (Greiner Bio one, Courtaboeuf, France) pre-treated with D-polylysine (Sigma) for reading with the Tristar2 luminometer (Berthold Technologies, Bad Wildbad, Germany) or onto 12 mm diameter glass coverslips (Knittel Glass, Braunschweig, Germany) treated with poly-L-lysine for the reading with the SpectraPro 2300i spectrometer (Acton Optics, Acton, Mass., USA). […]

[4] = TRPV1-Luc/YFP-CaM titration, presence vs absence of CAPS
[5] = temperature rise from 25 to 42° C., TRPV1-Luc/YFP-CaM

Chain of TRPV4 (Q9HBA0 whole entry, the tested form may be a part): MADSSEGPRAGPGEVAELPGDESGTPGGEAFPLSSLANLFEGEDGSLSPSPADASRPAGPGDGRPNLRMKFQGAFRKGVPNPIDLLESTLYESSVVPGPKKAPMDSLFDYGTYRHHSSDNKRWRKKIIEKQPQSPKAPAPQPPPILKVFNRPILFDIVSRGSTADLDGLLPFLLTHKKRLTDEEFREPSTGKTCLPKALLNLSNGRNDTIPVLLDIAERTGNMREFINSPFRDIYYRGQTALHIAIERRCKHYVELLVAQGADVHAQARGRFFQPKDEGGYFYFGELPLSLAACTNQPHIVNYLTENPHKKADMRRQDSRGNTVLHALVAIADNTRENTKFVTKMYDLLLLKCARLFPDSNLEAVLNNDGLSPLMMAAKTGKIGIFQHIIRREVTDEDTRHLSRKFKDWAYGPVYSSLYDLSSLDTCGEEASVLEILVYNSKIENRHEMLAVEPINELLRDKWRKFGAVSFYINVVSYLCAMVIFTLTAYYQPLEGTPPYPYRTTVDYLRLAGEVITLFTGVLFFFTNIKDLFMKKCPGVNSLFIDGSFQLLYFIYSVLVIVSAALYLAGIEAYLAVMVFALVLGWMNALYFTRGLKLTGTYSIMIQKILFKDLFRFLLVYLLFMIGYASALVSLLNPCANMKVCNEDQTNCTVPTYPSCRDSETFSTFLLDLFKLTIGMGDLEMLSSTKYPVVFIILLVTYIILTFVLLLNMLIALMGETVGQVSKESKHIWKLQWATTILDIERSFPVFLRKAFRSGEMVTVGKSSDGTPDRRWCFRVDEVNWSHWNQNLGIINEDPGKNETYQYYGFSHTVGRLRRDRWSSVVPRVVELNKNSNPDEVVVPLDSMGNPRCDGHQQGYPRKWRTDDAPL
T1 sequence (Q8NER1 whole entry): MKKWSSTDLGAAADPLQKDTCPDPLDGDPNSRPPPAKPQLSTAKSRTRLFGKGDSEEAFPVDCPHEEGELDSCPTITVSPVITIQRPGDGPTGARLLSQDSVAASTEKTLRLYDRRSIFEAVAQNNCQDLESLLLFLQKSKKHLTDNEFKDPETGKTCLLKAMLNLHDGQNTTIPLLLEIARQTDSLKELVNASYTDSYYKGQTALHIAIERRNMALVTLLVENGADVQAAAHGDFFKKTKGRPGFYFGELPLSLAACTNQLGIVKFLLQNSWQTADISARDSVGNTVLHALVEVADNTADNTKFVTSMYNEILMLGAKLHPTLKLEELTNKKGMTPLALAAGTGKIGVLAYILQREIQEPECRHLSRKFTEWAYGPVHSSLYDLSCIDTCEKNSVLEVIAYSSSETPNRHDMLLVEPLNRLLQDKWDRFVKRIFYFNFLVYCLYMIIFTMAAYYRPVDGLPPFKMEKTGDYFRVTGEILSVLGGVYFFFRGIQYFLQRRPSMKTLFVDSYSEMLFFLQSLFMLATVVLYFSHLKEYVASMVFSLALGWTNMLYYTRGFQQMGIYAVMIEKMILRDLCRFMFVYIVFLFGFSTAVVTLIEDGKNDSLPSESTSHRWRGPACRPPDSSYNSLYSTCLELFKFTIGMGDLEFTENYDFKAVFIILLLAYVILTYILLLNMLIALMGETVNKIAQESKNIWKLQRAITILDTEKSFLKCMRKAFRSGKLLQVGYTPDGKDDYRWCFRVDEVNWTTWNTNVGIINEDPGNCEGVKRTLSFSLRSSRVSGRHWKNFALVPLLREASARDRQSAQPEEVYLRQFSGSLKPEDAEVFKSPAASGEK

SMILES: CC(=O)Nc1nc2c(Oc3cc(-c4ccc(C(F)(F)F)cc4)ncn3)cccc2s1 [AMG517]
- Effect on CAPS-induced BRET increase ([1]; TRPV1-Luc/YFP-CaM): inhibited

SMILES: COc1cc(CNC(=O)CCCC/C=C/C(C)C)ccc1O [CAPS, Capsaicin]
- Sensitivity of TRPV1-Luc/YFP-CaM interaction ([1]; HEK293T, dose-response, FIG. 1): sensitive
- Change of basal BRET signal ([1]; TRPV1-Luc/YFP-CaM): increased with a first order kinetic
- BRET50 (concentration of YFP-CaM needed to reach 50% of maximal BRET signal) [1, 4]: diminished
- Maximal BRET signal in BRET titration curves [1, 4]: dramatically increased
- Change in CAPS potency on temperature rise [1, 5]: leftward shift
- Change in maximal efficacy on temperature rise [1, 5]: increase
- Cytosolic calcium concentration [2]: rapid, maintained increase
- TRPV4-Luc/YFP-CaM basal BRET signal on challenge [3]: did not produce any increase

SMILES: CC(C)C[C@H](NC(=O)c1cc2ccccc2s1)C(=O)N1CCN(C(=O)[C@H](CO)NS(=O)(=O)c2ccc(Cl)cc2Cl)CC1 [GSK1016790A]
- EC50 [3]: 1.93 nM
- TRPV4-Luc/YFP-CaM basal BRET signal on challenge [3]: dose-dependent increase

SMILES: CCN(CC)CCOC(=O)C(c1ccccc1)C1CCCCC1 (centres unmarked) [Drofenine]
- TRPV4-Luc/YFP-CaM basal BRET signal on challenge [3]: did not produce any increase

SMILES: Oc1cc2c(cc1O)CN(C(=S)NCCc1ccc(Cl)cc1)CCC2 [CPZ, Capsazepine]
- BRET signal on heating from 25 to 50° C. after preincubation ([1]; TRPV1-Luc/YFP-CaM, cells preincubated with the compound): no significant increase
- Effect on CAPS-induced BRET increase ([1]; TRPV1-Luc/YFP-CaM): inhibited
